The source of these data is article PMC5653977 (EMBO Molecular Medicine, 2017).

Where a name gives a salt, the structure may show the parent alone.

The first test concerns NRG1-ERBB4 signaling. In words: Nrg1-ERBB4-PIK3R1 split TEV co-culture compound screen of the NIH Clinical Collection. The test is classed as cell-based, human.
Settings: not given
In turn, `O=P1(N(CCCl)CCCl)NCCCO1` (stereo not shown) [Cytoxan, reference compound] displayed a Z-SCORE of -0.97.

The test is the same for the next values; noted with them: NIH Clinical Collection NCC-003 raw data; compounds ranked by Z-score; 'flagged' given instead of a Z-score.
In turn, `CC(=O)NC[C@H]1CN(c2ccc(N3CCOCC3)c(F)c2)C(=O)O1` [LINEZOLID] showed a Z-SCORE of -1.43.

`CCCCCCNC(=O)n1cc(F)c(=O)[nH]c1=O` [CARMOFUR] had a Z-SCORE of -2.48.

Molecule `COc1ccc(/C=C/C(=O)Nc2ccccc2C(=O)O)cc1OC` returned a Z-SCORE of -1.17.

As for `CC1=C(C(=O)O)N2C(=O)[C@@H](NC(=O)[C@H](N)c3ccccc3)[C@H]2SC1` [Cephalexin monohydrate], the Z-SCORE is recorded as -1.51.

For the molecule `CC(=O)[C@H]1CC[C@H]2[C@@H]3CCC4=CC(=O)CC[C@]4(C)[C@H]3CC[C@]12C` [PROGESTERONE], the Z-SCORE was -1.2.

As for `CC(C)C[C@H](NC(=O)[C@@H](O)[C@H](N)Cc1ccccc1)C(=O)O` [BESTATIN], the Z-SCORE is given as -1.11.

Regarding `COC(=O)C[C@](O)(CCCC(C)(C)O)C(=O)O[C@@H]1C(OC)=C[C@]23CCCN2CCc2cc4c(cc2[C@H]13)OCO4` [HOMOHARRINGTONINE], the Z-SCORE result was “flagged”.

The same test, now with this note: compound screen of the NIH Clinical Collection, sheet raw data NCC-003; compounds ranked by Z-score.
Molecule `CCOc1cc(CC(=O)N[C@@H](CC(C)C)c2ccccc2N2CCCCC2)ccc1C(=O)O` [REPAGLINIDE] displayed a Z-SCORE of 1.38.

`COC(=O)N1CCN(C(=O)Cc2ccc(Cl)c(Cl)c2)C(CN2CCCC2)C1` (stereo not shown) [GR 89696] displayed a Z-SCORE of 1.46.

In the case of `CN(Cc1cnc2nc(N)nc(N)c2n1)c1ccc(C(=O)N[C@@H](CCC(=O)O)C(=O)O)cc1`, the Z-SCORE is recorded as 0.85.

For `CN1C(=O)CC[C@H]1c1cccnc1` [(-)-Cotinine], the Z-SCORE is on record as -0.57.

`Cc1c(O)c(=O)ccn1C`: the Z-SCORE came to 0.19.

For the molecule `Nc1nc2ccc(OC(F)(F)F)cc2s1` [Riluzole], the Z-SCORE is recorded as -0.53.

As for `CC(O)(CS(=O)(=O)c1ccc(F)cc1)C(=O)Nc1ccc(C#N)c(C(F)(F)F)c1` (stereo not shown) [BICALUTAMIDE], the Z-SCORE is listed as 0.

In turn, `Cc1ncc([N+](=O)[O-])n1CC(O)CCl` (stereo not shown) [ORNIDAZOLE] gave a Z-SCORE of 2.22.

In the case of `CC[C@H]1OC(=O)[C@H](C)C(=O)[C@H](C)[C@@H](O[C@@H]2O[C@H](C)C[C@H](N(C)C)[C@H]2O)[C@](C)(OC)C[C@@H](C)C(=O)[C@H](C)[C@H]2N(CCCCn3cnc(-c4cccnc4)c3)C(=O)O[C@]12C` [Telithromycin, reference compound], the Z-SCORE amounted to 3.13.

`CC1(C)O[C@@H]2[C@@H](CO[C@@]3(COS(N)(=O)=O)OC(C)(C)O[C@@H]23)O1` [TOPIRAMATE] returned a Z-SCORE of 0.63.

`CN(C)[C@@H]1C(O)=C(C(=O)NCN2CCCC2)C(=O)[C@@]2(O)C(O)=C3C(=O)c4c(O)cccc4[C@@](C)(O)[C@H]3C[C@@H]12` [ROLITETRACYCLINE]: the Z-SCORE was -0.5.

Turning to `C=CC1=C(C(=O)O)N2C(=O)[C@@H](NC(=O)/C(=N\OCC(=O)O)c3csc(N)n3)[C@H]2SC1` [CEFIXIME TRIHYDRATE], the Z-SCORE is recorded as 1.63.

`Oc1ccc2c3c1O[C@H]1c4[nH]c5ccccc5c4C[C@@]4(O)[C@@H](C2)N(CC2CC2)CC[C@]314` [Naltrindole] came in with a Z-SCORE of -0.41.

In turn, `CN1CCN(c2nc3cc(C(F)(F)F)ccc3n3cccc23)CC1.O=C(O)/C=C\C(=O)O.O=C(O)/C=C\C(=O)O` [CGS 12066B] returned a Z-SCORE of 0.3.

As to `CC(C)OC(=O)CCC/C=C\C[C@@H]1[C@@H](CC[C@@H](O)CCc2ccccc2)[C@H](O)C[C@@H]1O` [LATANOPROST], the Z-SCORE is recorded as -0.3.

Turning to `Nc1ccc(O)c(C(=O)O)c1` [5-Amino-2-hydroxy-benzoic acid], the Z-SCORE is recorded as 1.62.

`C[C@]12C=CC(=O)C=C1CC[C@@H]1[C@@H]2[C@@H](O)C[C@@]2(C)[C@H]1CC[C@]2(O)C(=O)COC(=O)CCC(=O)[O-].[Na+]` gave a Z-SCORE of 0.67.

As for `COc1ccc2[n-]c([S+]([O-])Cc3ncc(C)c(OC)c3C)nc2c1.COc1ccc2[n-]c([S+]([O-])Cc3ncc(C)c(OC)c3C)nc2c1.[Mg+2]` (stereo not shown) [ESOMEPRAZOLE Mg], the Z-SCORE was found to be 0.45.

`CC(=O)CCCCn1c(=O)c2c(ncn2C)n(C)c1=O` [Pentoxifylline] gave a Z-SCORE of -0.43.

`CC(=O)SCC(Cc1ccccc1)C(=O)NCC(=O)OCc1ccccc1` (stereo not shown): the Z-SCORE came out at 0.

`COc1cc(C(=O)NS(=O)(=O)c2ccccc2C)ccc1Cc1cn(C)c2ccc(NC(=O)OC3CCCC3)cc12` [ZAFIRLUKAST] yielded a Z-SCORE of -0.67.

Molecule `COc1ccccc1OCC(O)CN1CCN(CC(=O)Nc2c(C)cccc2C)CC1` (stereo not shown) [Ranolazine dihydrochloride] registered a Z-SCORE of 0.21.

As for `OCc1cc(C(O)CNCCCCCCOCCCCc2ccccc2)ccc1O` (stereo not shown) [Salmeterol], the Z-SCORE came to 0.6.

In turn, `OC[C@H]1O[C@@H](Oc2cc(O)cc(/C=C/c3ccc(O)cc3)c2)[C@H](O)[C@@H](O)[C@@H]1O` [PICEID] returned a Z-SCORE of 0.85.

Turning to `CC(=O)OCC(=O)NCCCOc1cccc(CN2CCCCC2)c1` [ROXATIDINE ACETATE HCl], the Z-SCORE is recorded as -0.59.

For the molecule `CN1C(=O)COc2c(C(=O)NC3CN4CCC3CC4)cc(Cl)cc21` (stereo not shown) [Azasetron], the Z-SCORE worked out at 0.46.

Take `COCC1=C(C(=O)OC(C)OC(=O)OC(C)C)N2C(=O)[C@@H](NC(=O)/C(=N\OC)c3csc(N)n3)[C@H]2SC1` (stereo partly shown) [CEFPODOXIME PROXETIL]: the Z-SCORE amounted to 0.53.

Consider `Nc1nnc(-c2cccc(Cl)c2Cl)c(N)n1` [LAMOTRIGINE], for which the Z-SCORE is 0.3.

Regarding `CC(C)NCC(O)c1ccc(NS(C)(=O)=O)cc1` (stereo not shown) [Sotalol hydrochloride], the Z-SCORE is on record as 1.57.

On to `CC1(C)S[C@@H]2[C@H](/N=C/N3CCCCCC3)C(=O)N2[C@H]1C(=O)O`, for which the Z-SCORE was found to be 1.1.

Still in this test, the particulars now being: compounds at 10 μM, 24 h; PC12 split TEV assay cells co-cultured with Nrg1-expressing PC12 cells; analysed with cellHTS2.
On to `Cc1cccc(CN2CCN(C(c3ccccc3)c3ccc(Cl)cc3)CC2)c1.Cl` (stereo not shown) [Duremesin, reference compound], for which the Z-SCORE is -0.76.

Turning to `COC(=O)[C@H](c1ccccc1Cl)N1CCc2sccc2C1` [clopidogrel, reference compound], the Z-SCORE is on record as -0.3.

For `c1ccc2c(c1)CCCC2C1=NCCN1` (stereo not shown) [Tyzine, reference compound], the Z-SCORE was 0.46.

`CC(C[N+](C)(C)C)OC(N)=O` (stereo not shown) [Urecholine, reference compound] showed a Z-SCORE of -0.94.

In turn, `C[C@H]1c2cccc(O)c2C(=O)C2=C(O)[C@]3(O)C(=O)C(C(N)=O)=C(O)[C@@H](N(C)C)[C@@H]3[C@@H](O)[C@@H]21` [DOXYCYCLINE, reference compound] gave a Z-SCORE of -0.93.

Molecule `CNCCC=C1c2ccccc2CCc2ccccc21` [Pamelor, reference compound] showed a Z-SCORE of 0.41.

Turning to `CN(C)C(=O)Oc1ccc[n+](C)c1` [Mestinon, reference compound], the Z-SCORE is on record as -0.37.

Turning to `CC(COc1ccccc1)NC(C)C(O)c1ccc(O)cc1` (stereo not shown) [Duvadilan, reference compound], the Z-SCORE is -1.36.

Turning to `CC1=C(/C=C/C(C)=C/C=C/C(C)=C/C(=O)O)C(C)(C)CCC1` [Retinoic acid, reference compound], the Z-SCORE stood at 1.72.

Molecule `CN(C)[C@@H]1C(O)=C(C(N)=O)C(=O)[C@@]2(O)C(O)=C3C(=O)c4c(O)cccc4[C@@](C)(O)[C@H]3[C@H](O)[C@@H]12` [Oxytetracycline hydrochloride, reference compound] showed a Z-SCORE of 0.67.

In the case of `CC[C@H]1OC(=O)[C@H](C)C(=O)[C@H](C)[C@@H](O[C@@H]2O[C@H](C)C[C@H](N(C)C)[C@H]2O)[C@](C)(OC)C[C@@H](C)C(=O)[C@H](C)[C@H]2N(CCCCn3cnc(-c4cccnc4)c3)C(=O)O[C@]12C` [Telithromycin, reference compound], the Z-SCORE stood at 3.13.

As for `Cc1onc(-c2c(Cl)cccc2Cl)c1C(=O)N[C@@H]1C(=O)N2[C@@H]1SC(C)(C)[C@@H]2C(=O)O` [DICLOXACILLIN SODIUM, reference compound], the Z-SCORE was found to be 0.28.

`NS(=O)(=O)c1cc(C(=O)O)c(NCc2ccco2)cc1Cl` [FUROSEMIDE, reference compound] yielded a Z-SCORE of 0.8.

For `CC(=O)OCC(=O)[C@@]1(O)CC[C@H]2[C@@H]3CCC4=CC(=O)CC[C@]4(C)[C@H]3C(=O)C[C@@]21C` [CORTISONE ACETATE, reference compound], the Z-SCORE amounted to 0.08.

The molecule `CC(=O)O.NCc1ccc(S(N)(=O)=O)cc1` [4-(AMINOMETHYL)BENZENESULFONAMIDE ACETATE, reference compound] had a Z-SCORE of 0.49.

`COc1ccc([C@@H]2Sc3ccccc3N(CCN(C)C)C(=O)[C@@H]2OC(C)=O)cc1.Cl` (relative stereo) [(+)-CIS-DILTIAZEM HYDROCHLORIDE, reference compound]: the Z-SCORE was -0.13.

Consider `CO/N=C(\C(=O)N[C@@H]1C(=O)N2C(C(=O)O)=C(COC(N)=O)CS[C@H]12)c1ccco1` [Cefuroxime, reference compound], for which the Z-SCORE is reported as 0.08.

Take `CC(=O)OCC[N+](C)(C)C` [Miochol, reference compound]: the Z-SCORE is reported as 0.45.

Take `O=C(C1CCCCC1)N1CC(=O)N2CCc3ccccc3C2C1` (stereo not shown) [PRAZIQUANTEL, reference compound]: the Z-SCORE worked out at 0.38.

Regarding `CO/N=C(\C(=O)N[C@@H]1C(=O)N2C(C(=O)O)=C(COC(C)=O)CS[C@H]12)c1csc(N)n1` [CEFOTAXIME SODIUM SALT, reference compound], the Z-SCORE was -0.2.

Take `CCN(CC)CC#CCOC(=O)C(O)(c1ccccc1)C1CCCCC1` (stereo not shown) [OXYBUTYNIN CHLORIDE, reference compound]: the Z-SCORE was -0.59.

`CCCOc1ccc(C(=O)OCCN(CC)CC)cc1N` [Proparacaine hydrochloride, reference compound] gave a Z-SCORE of 0.5.

Regarding `O=C1C(CC[S+]([O-])c2ccccc2)C(=O)N(c2ccccc2)N1c1ccccc1` (stereo not shown) [Sulfinpyrazone, reference compound], the Z-SCORE was 0.99.

`CC(C)(C(=O)c1cccnc1)c1cccnc1` [METYRAPONE, reference compound] registered a Z-SCORE of 0.48.

Consider `O=C(c1ccc(OCCN2CCCCC2)cc1)c1c(-c2ccc(O)cc2)sc2cc(O)ccc12` [Evista, reference compound], for which the Z-SCORE stood at 1.2.

`COC(=O)Nc1nc2ccc(C(=O)c3ccccc3)cc2[nH]1` [Mebendazole, reference compound]: the Z-SCORE was -4.63.
